Legend:
HCV Replicon = HCV Replicon inhibition; format: cell-based; conditions: Hepatitis C virus
NS5B polymerase protein = target: T1, NS5B polymerase protein (Hepatitis C virus genotype 1a, UniProt P27958); test: biochemical; conditions: pre-incubated 37° C. 30 minutes; RdRp reaction 90 minutes at 37° C.; read-out: HCV NS5B inhibition EC50
T1 construct: pre-incubated with the RNA template and NS5B polymerase protein; Replizyme
Method: The compounds were tested in the Replizyme HCV heterotemplate radioactive RNA-dependent RNA-polymerase (RdRp) assay. The test compounds were pre-incubated with the RNA template and NS5B polymerase protein at 37° C. for 30 minutes. The RdRp reaction was initiated with the addition of the NTPs to the buffer-NS5B-compound mix, and was allowed to proceed for 90 minutes at 37° C. Control reactions included: no enzyme, 5% DMSO (test compound solvent), no compound/solvent, Cordycepin-TP and HCV-796 (IC50 values used as a reference inhibition). Radioactive products were collected by applying the stopped reaction to DE-81 paper, air dried prior to washing with buffer comprising NaH2PO4 and sodium pyrophosphate to remove unincorporated ^32P-GTP in the NTP mix, and rinsed with dH2O followed by 100% ethanol. The DE-81 paper was air dried, squares cut out and placed in scintillation tubes for counting.

T1 sequence (P27958 2421-3011): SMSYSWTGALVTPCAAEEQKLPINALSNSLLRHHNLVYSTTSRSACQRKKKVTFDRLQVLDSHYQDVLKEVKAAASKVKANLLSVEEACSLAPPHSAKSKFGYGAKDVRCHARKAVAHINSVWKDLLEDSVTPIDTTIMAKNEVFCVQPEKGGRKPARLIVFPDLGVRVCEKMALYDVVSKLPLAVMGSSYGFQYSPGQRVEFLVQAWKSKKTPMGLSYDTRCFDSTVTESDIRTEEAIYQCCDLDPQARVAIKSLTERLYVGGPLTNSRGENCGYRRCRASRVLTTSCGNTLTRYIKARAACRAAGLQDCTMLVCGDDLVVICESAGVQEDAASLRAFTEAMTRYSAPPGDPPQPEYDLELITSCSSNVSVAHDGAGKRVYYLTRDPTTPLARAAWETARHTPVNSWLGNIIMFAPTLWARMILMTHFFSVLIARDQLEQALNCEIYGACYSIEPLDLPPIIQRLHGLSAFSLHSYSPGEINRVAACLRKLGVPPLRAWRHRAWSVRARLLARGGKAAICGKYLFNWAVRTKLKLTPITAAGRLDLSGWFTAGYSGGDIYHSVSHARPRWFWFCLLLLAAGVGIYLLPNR

Row | SMILES | EC50 (HCV Replicon) [nM] | EC50 (NS5B polymerase protein) [nM]
1 | Cc1ccc2c(CCC(C)C)c(=O)c(C3=NS(=O)(=O)c4cc(NS(C)(=O)=O)ccc4N3)c(O)n2c1 [Compound 252] | < 100 | < 100
2 | COc1ccc2c(C3=NS(=O)(=O)c4cc(NS(C)(=O)=O)ccc4N3)cn(CCC(C)C)c2c1 [Compound 206] | > 50000 | 1000 to 10000
3 | CC(C)CCc1c(=O)c(C2=NS(=O)(=O)c3cc(NS(=O)(=O)C4CC4)ccc3N2)c(O)n2ccccc12 [Compound 226] | < 100 | < 100
4 | CC(C)CCn1cc(C2=NS(=O)(=O)c3cc(NS(C)(=O)=O)ccc3N2)c2cc(Cl)ccc21 [Compound 207] | > 50000 | 1000 to 10000
5 | CC(C)CCn1cc(C2=NS(=O)(=O)c3cc(NS(C)(=O)=O)ccc3N2)c2ccccc21 [Compound 203] | > 50000 | 100 to 1000

Reference: patent US20090257979A1, “Novel Inhibitors of Hepatitis C Virus Replication” (INTERMUNE, INC., priority 2008, published 2009)
